Drawing on patent publication US10689331B2, “IDO inhibitors” (Bristol-Myers Squibb Company, priority 2015, dated 2020), this text covers IC50 for 32 compounds.

In the experiment the target is T1, human IDO1 (Homo sapiens, UniProt P14902).
T1 construct: expressed in transfected cells
The experiment is described as follows: HEK Human IDO-1 inhibition assay (kynurenine readout, Ehrlich reagent, absorbance 490 nm). It is filed as cell-based. Particulars: human IDO1/HEK293 cells, incubated 20 hours with compound; 500 nM reference standard = 100% inhibition. The protocol: HEK293 cells were transfected with a pCDNA-based mammalian expression vector harboring human IDO1 cDNA (NM 002164.2) by electroporation. They were cultured in medium (DMEM with 10% FBS) containing 1 mg/ml G418 for two weeks. Clones of HEK293 cells that stably expressed human IDO1 protein were selected and expanded for IDO inhibition assay.
The human IDO1/HEK293 cells were seeded at 10,000 cells per 50 uL per well with RPMI/phenol red free media contains 10% FBS in a 384-well black wall clear bottom tissue culture plate (Matrix Technologies LLC) 100 nL of certain concentration of compound was then added to each well using ECHO liquid handling systems. The cells were incubated for 20 hours in 37° C. incubator with 5% CO2.
The compound treatments were stopped by adding Trichloroacetic Acid (Sigma-Aldrich) to a final concentration at 0.2%. The cell plate was further incubated at 50° C. for 30 minute. The equal volume supernatant (20 uL) and 0.2% (w/v) Ehrlich reagent (4-dimethylaminobenzaldehyde, Sigma-Aldrich) in glacial acetic acid were mixed in a new clear bottom 384-well plate. This plate was then incubated at room temperature for 30 minute. The absorbance at 490 nm was measured on Envision plate reader. Compound IC50 values were calculated using the counts of 500 nM of a reference standard treatment as one hundred percent inhibition, and counts of no compound but DMSO treatment as zero percent inhibition.

By IC50 is commonly meant the concentration that inhibits the measured activity by half.

T1 sequence (P14902 whole entry): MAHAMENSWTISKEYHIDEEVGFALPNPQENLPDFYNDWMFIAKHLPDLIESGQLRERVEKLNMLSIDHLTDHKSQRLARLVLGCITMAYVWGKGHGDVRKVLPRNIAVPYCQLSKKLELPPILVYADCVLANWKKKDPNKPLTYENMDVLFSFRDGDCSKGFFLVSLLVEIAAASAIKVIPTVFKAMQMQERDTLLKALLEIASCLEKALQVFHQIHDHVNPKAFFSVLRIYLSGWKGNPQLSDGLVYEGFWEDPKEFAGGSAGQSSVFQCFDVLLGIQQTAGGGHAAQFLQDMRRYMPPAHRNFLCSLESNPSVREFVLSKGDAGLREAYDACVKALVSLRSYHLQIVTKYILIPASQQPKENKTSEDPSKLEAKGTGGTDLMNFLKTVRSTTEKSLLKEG

On to `CCCC(Oc1ccc(N(CC(C)C)C2CCCCC2)c(NC(=O)Nc2ccccc2F)c1)C(=O)O` (single isomer, unassigned) [Example 87-2, 2-(4-(cyclohexyl(isobutyl)amino)-3-(3-(2-fluorophenyl)ureido)phenoxy)pentanoic acid], for which the 50% inhibitory concentration (IC50) was below 5 nM.

As to `Cc1ccc(NC(=O)Nc2cc(OC(C)C(=O)O)ccc2N(CC(C)C)C2CCCCC2)cc1` (single isomer, unassigned) [Example 60-1, 2-(4-(cyclohexyl(isobutyl)amino)-3-(3-(p-tolyl)ureido)phenoxy)propanoic acid], the 50% inhibitory concentration (IC50) was below 5 nM.

Regarding `COc1ccc(NC(=O)Nc2cc(OCC(=O)O)ccc2N(CC(C)C)C2CCCCC2)c(F)c1` [Example 25, 2-(4-(cyclohexyl(isobutyl)amino)-3-(3-(2-fluoro-4-methoxyphenyl)ureido)phenoxy)acetic acid], the 50% inhibitory concentration (IC50) is below 5 nM.

For the compound `CC(C)CN(c1cc(F)c(OCC(=O)O)cc1NC(=O)Nc1cc(F)ccc1F)C1CCCCC1` [Example 126, 2-(4-(cyclohexyl(isobutyl)amino)-5-(3-(2,5-difluorophenyl)ureido)-2-fluorophenoxy)acetic acid], the 50% inhibitory concentration (IC50) was below 5 nM.

As to `CC(C)CN(c1ccc(OC(C)c2ncco2)cc1NC(=O)Nc1ccc(Cl)cc1F)C1CCCCC1` (centres unmarked) [Example 157, 1-(4-chloro-2-fluorophenyl)-3-(2-(cyclohexyl(isobutyl)amino)-5-(1-(oxazol-2-yl)ethoxy)phenyl)urea], the IC50 is below 100 nM.

For `CC(C)CN(c1ccc(OCC(=O)O)cc1NC(=O)Nc1nncs1)C1CCCCC1` [Example 6, 2-(3-(3-(1,3,4-thiadiazol-2-yl)ureido)-4-(cyclohexyl(isobutyl)amino)phenoxy)acetic acid], the IC50 was at least 100 nM.

For `CCCN(Cc1ccc(Cl)cc1)c1ccc(OCC(=O)O)cc1NC(=O)Nc1ccc(Cl)cc1F` [Example 164, 2-(3-(3-(4-chloro-2-fluorophenyl)ureido)-4-((4-chlorobenzyl)(propyl)amino)phenoxy)acetic acid], the IC50 was below 100 nM.

`COCC(Oc1ccc(N(CC(C)C)C2CCCCC2)c(NC(=O)Nc2ccc(Cl)cc2F)c1)C(=O)O` (single isomer, unassigned) [Example 89-2, 2-(3-(3-(4-chloro-2-fluorophenyl)ureido)-4-(cyclohexyl(isobutyl)amino)phenoxy)-3-methoxypropanoic acid]: the IC50 is below 100 nM.

On to `Cc1nnc(NC(=O)Nc2cc(OCC(=O)O)ccc2N(CC(C)C)C2CCCCC2)s1` [Example 11, 2-(4-(cyclohexyl(isobutyl)amino)-3-(3-(5-methyl-1,3,4-thiadiazol-2-yl)ureido)phenoxy)acetic acid], for which the IC50 was at least 100 nM.

Take `CC(C)CN(c1ccc(OC(C)C(=O)O)cc1NC(=O)Nc1cncnc1)C1CCCCC1` (single isomer, unassigned) [Example 58-2, 2-(4-(cyclohexyl(isobutyl)amino)-3-(3-(pyrimidin-5-yl)ureido)phenoxy)propanoic acid]: the IC50 is below 100 nM.

For `CCOC(=O)COc1ccc(N(CC(C)C)C2CCCCC2)c(NC(=O)Nc2ccc(Cl)cc2F)c1` [Example 42, ethyl 2-(3-(3-(4-chloro-2-fluorophenyl)ureido)-4-(cyclohexyl(isobutyl)amino)phenoxy)acetate], the IC50 was below 5 nM.

`CCCN(Cc1ccccc1)c1ccc(OCC(=O)O)cc1NC(=O)Cc1ccc(Cl)cc1F` [Example 165, 2-(4-(benzyl(propyl)amino)-3-(2-(4-chloro-2-fluorophenyl)acetamido)phenoxy)acetic acid]: the IC50 is at least 100 nM.

With `CC(C)CN(c1ccc(OCC(=O)O)cc1NC(=O)Nc1nccs1)C1CCCCC1` [Example 12, 2-(4-(cyclohexyl(isobutyl)amino)-3-(3-(thiazol-2-yl)ureido)phenoxy)acetic acid], the IC50 was at least 100 nM.

In the case of `CCCC(Oc1ccc(N(CC(C)C)C2CCCCC2)c(NC(=O)Nc2cncnc2)c1)C(=O)O` (single isomer, unassigned) [Example 88-2, 2-(4-(cyclohexyl(isobutyl)amino)-3-(3-(pyrimidin-5-yl)ureido)phenoxy)pentanoic acid], the concentration for half-maximal inhibition (IC50) was below 100 nM.

With `Cc1ccc(CC(=O)Nc2cc(OCC(=O)O)ccc2N(CC(C)C)C2CCCCC2)c(F)c1` [Example 55, 2-(4-(cyclohexyl(isobutyl)amino)-3-(2-(2-fluoro-4-methylphenyl)acetamido)phenoxy)acetic acid], the half-inhibitory concentration (IC50) is below 100 nM.

As to `C=C(C)CN(c1ccc(OCC(=O)O)cc1NC(=O)Nc1ccc(Cl)cc1F)C1CCOCC1` [Example 137, 2-(3-(3-(4-chloro-2-fluorophenyl)ureido)-4-((2-methylallyl)(tetrahydro-2H-pyran-4-yl)amino)phenoxy)acetic acid], the IC50 is below 100 nM.

`CC(C)CN(c1ccc(OC(C)C(=O)O)cc1NC(=O)Nc1cncnc1)C1CCCCC1` (single isomer, unassigned) [Example 58-1, 2-(4-(cyclohexyl(isobutyl)amino)-3-(3-(pyrimidin-5-yl)ureido)phenoxy)propanoic acid]: the IC50 is at least 100 nM.

In the case of `Cc1ccc(NC(=O)Nc2cc(OCC(=O)O)ccc2N(CC(C)C)C2CCCCC2)cc1F` [Example 33, 2-(4-(cyclohexyl(isobutyl)amino)-3-(3-(3-fluoro-4-methylphenyl)ureido)phenoxy)acetic acid], the IC50 was below 100 nM.

For the compound `CCC(Oc1ccc(N(CC(C)C)C2CCCCC2)c(NC(=O)Nc2ccc(Cl)cc2F)c1)C(=O)O` (single isomer, unassigned) [Example 80-2, 2-(3-(3-(4-chloro-2-fluorophenyl)ureido)-4-(cyclohexyl(isobutyl)amino)phenoxy)butanoic acid], the IC50 was below 5 nM.

On to `COCCN(c1ccc(OCC(=O)O)cc1NC(=O)Nc1ccc(Cl)cc1F)C1CCCCC1` [Example 116, 2-(3-(3-(4-chloro-2-fluorophenyl)ureido)-4-(cyclohexyl(2-methoxyethyl)amino)phenoxy)acetic acid], for which the IC50 is below 100 nM.

On to `Cc1cnc(NC(=O)COc2ccc(N(CC(C)C)C3CCCCC3)c(NC(=O)Nc3ccc(Cl)cc3F)c2)s1` [Example 111, 2-(3-(3-(4-chloro-2-fluorophenyl)ureido)-4-(cyclohexyl(isobutyl)amino)phenoxy)-N-(5-methylthiazol-2-yl)acetamide], for which the IC50 was at least 100 nM.

Turning to `C=C(C)CN(CCCC(F)(F)F)c1cc(F)c(OCC(=O)O)cc1NC(=O)Nc1cc(C)no1` [Example 121, 2-(2-fluoro-4-((2-methylallyl)(4,4,4-trifluorobutyl)amino)-5-(3-(3-methylisoxazol-5-yl)ureido)phenoxy)acetic acid], the IC50 is below 100 nM.

For `Cc1cc(F)ccc1NC(=O)Nc1cc(OCC(=O)O)ccc1N(CC(C)C)C1CCCCC1` [Example 38, 2-(4-(cyclohexyl(isobutyl)amino)-3-(3-(4-fluoro-2-methylphenyl)ureido)phenoxy) acetic acid], the IC50 was at least 100 nM.

With `CC(C)CN(c1ccc(OCC(=O)NS(=O)(=O)c2cccs2)cc1NC(=O)Nc1ccc(Cl)cc1F)C1CCCCC1` [Example 49], the concentration for half-maximal inhibition (IC50) is below 5 nM.

For the compound `CC(C)CN(c1cc(F)c(OCC(=O)O)cc1NC(=O)Nc1ccc(C#N)nc1)C1CCCCC1` [Example 128, 2-(5-(3-(6-cyanopyridin-3-yl)ureido)-4-(cyclohexyl(isobutyl)amino)-2-fluorophenoxy)acetic acid], the 50% inhibitory concentration (IC50) is at least 100 nM.

For the compound `CC(C)CN(c1ccc(OCC(=O)O)cc1Nc1nc2ccccc2o1)C1CCCCC1` [Example 44, 2-(3-(benzo[d]oxazol-2-ylamino)-4-(cyclohexyl(isobutyl)amino)phenoxy)acetic acid], the IC50 is at least 100 nM.

For the compound `CC(C)CN(c1cc(F)c(OCC(=O)O)cc1NC(=O)Nc1ccccc1F)C1CCCCC1` [Example 129], the IC50 is below 100 nM.

`C=C(C)CN(c1ccc(OCC(=O)O)cc1NC(=O)Nc1ccc(Cl)cc1F)C1COC1` [Example 141, 2-(3-(3-(4-chloro-2-fluorophenyl)ureido)-4-((2-methylallyl)(oxetan-3-yl)amino)phenoxy)acetic acid]: the IC50 was at least 100 nM.

With `CC(C)CN(c1ccc(OCC(=O)NS(=O)(=O)C(C)(C)C)cc1NC(=O)Nc1ccc(Cl)cc1F)C1CCCCC1` [Example 48, N-(tert-butylsulfonyl)-2-(3-(3-(4-chloro-2-fluorophenyl)ureido)-4-(cyclohexyl(isobutyl)amino)phenoxy) acetamide], the half-maximal inhibitory concentration (IC50) is below 5 nM.

With `Cc1ccc(N(C)C(=O)Nc2cc(OCC(=O)O)ccc2N(CC(C)C)C2CCCCC2)cc1` [Example 40, 2-(4-(cyclohexyl(isobutyl)amino)-3-(3-methyl-3-(p-tolyl)ureido)phenoxy)acetic acid], the 50% inhibitory concentration (IC50) was at least 100 nM.

Consider `CC(C)CN(c1ccc(OCC(=O)O)cc1NC(=O)Nc1ccc(-c2cnco2)cc1)C1CCCCC1` [Example 14, 2-(4-(cyclohexyl(isobutyl)amino)-3-(3-(4-(oxazol-5-yl)phenyl)ureido)phenoxy)acetic acid], for which the IC50 was at least 100 nM.

As for `CCCN(Cc1ccccc1)c1ccc(OCC(=O)O)cc1NC(=O)Nc1ccc(C(F)(F)F)cc1` [Example 162, 2-(4-(benzyl(propyl)amino)-3-(3-(4-(trifluoromethyl)phenyl)ureido)phenoxy)acetic acid], the IC50 was at least 100 nM.
